Experimental data published in patent US9035052B2, “Compositions of azimilide dihydrochloride” (WARNER CHILCOTT COMPANY, LLC, priority 2006, dated 2015).

Columns and labels:
[1] = Apparent water solubility and dissolution of the solid state forms
[2] = Stability / water uptake of the solid state forms on exposure to relative humidity; assay type: physicochemical

With CN1CCN(CCCCN2C(=O)CN(/N=C/c3ccc(-c4ccc(Cl)cc4)o3)C2=O)CC1.Cl.Cl [hemi-hydrate, (E)-1-[[[5-(4-chlorophenyl)-2-furanyl]methylene]amino]-3-[4-(4-methyl-1-piperazinyl)butyl]-2,4-imidazolidinedione dihydrochloride] as the compound, how does the “dissolution rate compared with the anhydrate form” value ([1]; water) read?
Its value is “more rapid”.

What about the solubility ([1]; water, apparent water solubility, room temperature) of the same compound?
Its solubility is about 170 mg/mL.

What about the water content stability ([2]; room temperature, relative humidity range of 12% to 85% RH) of the same compound?
Its water content stability is “stable”.

Which results are given for CN1CCN(CCCCN2C(=O)CN(/N=C/c3ccc(-c4ccc(Cl)cc4)o3)C2=O)CC1.Cl.Cl [isopropanol solvate, (E)-1-[[[5-(4-chlorophenyl)-2-furanyl]methylene]amino]-3-[4-(4-methyl-1-piperazinyl)butyl]-2,4-imidazolidinedione dihydrochloride]?
apparent water solubility ([1]; water, room temperature, dihydrochloride): 220 mg/mL; solid form conversion on humidity exposure ([2]; 85% relative humidity): converts to the anhydrate form within days to weeks; stability upon exposure to humidity ([2]; exposure to humidity): not stable

Which results are given for CN1CCN(CCCCN2C(=O)CN(/N=C/c3ccc(-c4ccc(Cl)cc4)o3)C2=O)CC1.Cl.Cl [anhydrate, (E)-1-[[[5-(4-chlorophenyl)-2-furanyl]methylene]amino]-3-[4-(4-methyl-1-piperazinyl)butyl]-2,4-imidazolidinedione dihydrochloride]?
solubility as per the USP definition of solubility [1]: freely soluble; solubility ([1]; water): 160 mg/mL; hygroscopicity (water uptake) ([2]; room temperature, 85% relative humidity, up to 4 weeks): no evidence of water uptake
